The values that follow come from paper PMC11721672, “Design, Structure–Activity Relationships, and Computational Modeling Studies of a Series of α-Helix Biased, Ultra-Short Glucagon-like Peptide-1 Receptor Agonists” (Molecules, 2024).

Where two headings read alike, the source gives them in different places. Square brackets hold non-standard residues; d marks the D form. Peptide text beside a SMILES is read from it. Bip = N[C@@H](Cc1ccc(-c2ccccc2)cc1)C(=O)O; αMePhe(2-F) = C[C@](N)(Cc1ccccc1F)C(=O)O; Phe(2-F) = N[C@@H](Cc1ccccc1F)C(=O)O; Aib = CC(C)(N)C(=O)O

The assay deals with T1, hGLP1 receptor (Homo sapiens, UniProt P43220).
T1 construct: expressed in transfected cells; host or cells: HEK (human embryonic kidney) cells co-expressing hGLP1 receptor and CRE-Luciferase
Description: GLP-1 receptor agonism assay (HTRF cAMP, HEK cells co-expressing hGLP1 receptor and CRE-Luciferase). The assay is classed as cell-based. The following applies: for rescue of potency by Aib versus Ala substitution: Aib analog versus Ala analog at the same position; for decreased potency by Aib substitution: Aib-scanning, versus parent analog RXL-101; for Emax: HEK293, Table 6 potency profile; for EC50 / dpEC50 (contribution of Cα-methylation) / pEC50: 0% HSA; for dpEC50 (contribution of Cα-methylation): dpEC50 = pEC50 (Aib) − pEC50 (Ala) − 0.97, Aib peptide versus the Ala peptide of the same line; for decreased potency of Aib analog versus Ala analog: same position, Ala superior to Aib; for decreased potency (Aib/Ala comparison): versus respective parent analog. As to the method: Human embryonic kidney cells (HEK) co-expressing the hGLP1 receptor and CRE-Luciferase construct were used to determine agonist potency in this assay. The cells were thawed briefly at 37 °C, transferred to a sterile tube, and re-suspended in complete media at 37 °C. Cells were centrifuged at 1000 rpm for 5 min and collected; the cells were then re-suspended in an assay buffer consisting of Dulbecco’s phosphate-buffered saline (DPBS, GIBCO) with 500 μM of the phosphodiesterase inhibitor 3-isobutyl-1-methylxanthine (IBMX). The assay medium had 0% serum albumin, as specified in Table 1, Table 2, Table 3 and Table 4. The optimal cell density was determined to be 1000 cells/well. Cells were added to wells in 384-well plates containing appropriate pre-prepared dilutions of compounds (test peptides or reference compound exendin-4), sealed, and incubated with CO2 for 30 min. Test peptide solutions were diluted from 10 mM stock solutions to be used in two separate runs (performed in triplicate) from a maximal concentration of 1.0 μM, with 11 concentrations tested for each peptide using serial 1:3 dilution from this maximal concentration. […] The agonist assay was a homogeneous time-resolved fluorescence (HTRF) assay (Cisbio). Following incubation of the cells for 30 min with test or reference peptides, 5 μL of the cAMP acceptor cAMP-d2, prepared previously as a working solution from frozen stock (1:20 dilution), was added to each well of the assay plate along with 5 μL of anti-cAMP antibody-cryptate working solution (diluted 1:20 from frozen stock). The wells were incubated for 1 h at room temperature, and fluorescence was then read at 665 and 615 nm with an Envision reader with a TRF laser. Data were saved and analyzed using Prism software (GraphPad). Concentration–response analysis was performed using 4-parameter logistic fits of the resulting data, and EC50 values were obtained for each test and reference compound.

[1] abbreviates: Table 2, Ala-scanning, >1000 nM = out of range, read-out: cAMP EC50.

T1 sequence (P43220 24-463): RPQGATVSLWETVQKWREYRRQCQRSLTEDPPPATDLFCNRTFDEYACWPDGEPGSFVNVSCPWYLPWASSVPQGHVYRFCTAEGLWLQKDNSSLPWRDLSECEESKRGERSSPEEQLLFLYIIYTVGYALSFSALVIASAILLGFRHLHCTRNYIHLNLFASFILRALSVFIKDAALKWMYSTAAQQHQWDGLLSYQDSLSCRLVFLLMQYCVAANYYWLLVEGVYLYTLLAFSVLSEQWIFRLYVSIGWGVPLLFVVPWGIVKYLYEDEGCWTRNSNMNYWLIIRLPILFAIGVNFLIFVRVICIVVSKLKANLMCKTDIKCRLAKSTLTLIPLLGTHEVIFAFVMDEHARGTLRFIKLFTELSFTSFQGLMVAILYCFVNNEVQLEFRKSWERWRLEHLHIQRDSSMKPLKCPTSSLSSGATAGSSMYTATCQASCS

For orientation: Emax means the greatest response seen or fitted, relative to the assay's reference. For `C[C@@H](O)[C@H](NC(=O)CNC(=O)[C@H](CCC(=O)O)NC(=O)C(C)(C)NC(=O)[C@@H](N)Cc1c[nH]cn1)C(=O)NC(C)(C)C(=O)N[C@H](C(=O)N[C@@H](CO)C(=O)N[C@@H](CC(=O)O)C(=O)N[C@@H](Cc1ccc(-c2ccccc2)cc1)C(=O)N[C@@H](Cc1ccc(-c2ccccc2)cc1)C(N)=O)[C@@H](C)O` [RXL-3028, His-Aib-Glu-Gly-Thr-Aib-Thr-Ser-Asp-Bip-Bip-NH2] (H-H[Aib]EGT[Aib]TSD[Bip][Bip]-NH2), the “rescue of potency by Aib versus Ala substitution” value was “more than 10 fold”, the “decreased potency by Aib substitution” value was at least 100 fold, the Emax is 76.1% and the “dpEC50 (contribution of Cα-methylation)” value worked out at 0.46. Further, the EC50 (Table 3, Aib-scanning, >1000 nM = out of range, read-out: cAMP EC50) amounted to 161 nM. In addition, under “Table 4, Aib-scan peptides, read-out: pEC50 (converted)”, the EC50 was 105 nM.

As for `C[C@@H](O)[C@H](NC(=O)CNC(=O)[C@H](CCC(=O)O)NC(=O)C(C)(C)NC(=O)C(C)(C)N)C(=O)N[C@@](C)(Cc1ccccc1F)C(=O)N[C@H](C(=O)N[C@@H](CO)C(=O)N[C@@H](CC(=O)O)C(=O)N[C@@H](Cc1ccc(-c2ccccc2)cc1)C(=O)N[C@@H](Cc1ccc(-c2ccccc2)cc1)C(N)=O)[C@@H](C)O` [RXL-3030, Aib-Aib-Glu-Gly-Thr-α-Me-Phe(2-F)-Thr-Ser-Asp-Bip-Bip-NH2] (H-[Aib][Aib]EGT[αMePhe(2-F)]TSD[Bip][Bip]-NH2), the “decreased potency by Aib substitution” value was below 10 fold, the Emax was 112% and the “dpEC50 (contribution of Cα-methylation)” value was −0.26.

Broadly, the pEC50 is the EC50 on a negative log10 scale, so that one unit is a factor of ten. A lower pEC50 goes with a large EC50. As for `C[C@@H](O)[C@H](NC(=O)CNC(=O)C(C)(C)NC(=O)C(C)(C)NC(=O)[C@@H](N)Cc1c[nH]cn1)C(=O)N[C@@](C)(Cc1ccccc1F)C(=O)N[C@H](C(=O)N[C@@H](CO)C(=O)N[C@@H](CC(=O)O)C(=O)N[C@@H](Cc1ccc(-c2ccccc2)cc1)C(=O)N[C@@H](Cc1ccc(-c2ccccc2)cc1)C(N)=O)[C@@H](C)O` [RXL-3031, His-Aib-Aib-Gly-Thr-α-Me-Phe(2-F)-Thr-Ser-Asp-Bip-Bip-NH2] (H-H[Aib][Aib]GT[αMePhe(2-F)]TSD[Bip][Bip]-NH2), the Emax is 121% and the “dpEC50 (contribution of Cα-methylation)” value is recorded as −1.13. For the same compound, for the setting “Table 4, Aib-scan peptides”, the pEC50 is on record as 8.31.

In the case of `C[C@@H](O)[C@H](NC(=O)C(C)(C)NC(=O)[C@H](CCC(=O)O)NC(=O)C(C)(C)NC(=O)[C@@H](N)Cc1c[nH]cn1)C(=O)N[C@@](C)(Cc1ccccc1F)C(=O)N[C@H](C(=O)N[C@@H](CO)C(=O)N[C@@H](CC(=O)O)C(=O)N[C@@H](Cc1ccc(-c2ccccc2)cc1)C(=O)N[C@@H](Cc1ccc(-c2ccccc2)cc1)C(N)=O)[C@@H](C)O` [RXL-3032, His-Aib-Glu-Aib-Thr-α-Me-Phe(2-F)-Thr-Ser-Asp-Bip-Bip-NH2] (H-H[Aib]E[Aib]T[αMePhe(2-F)]TSD[Bip][Bip]-NH2), the “rescue of potency by Aib versus Ala substitution” value is “about 10 fold”, the “decreased potency by Aib substitution” value is at least 100 fold, the Emax stood at 118% and the “dpEC50 (contribution of Cα-methylation)” value was 0.37. Besides, the pEC50 (Table 4, Aib-scan peptides) came to 7.80.

On to `C[C@@H](O)[C@H](NC(=O)[C@](C)(Cc1ccccc1F)NC(=O)C(C)(C)NC(=O)CNC(=O)[C@H](CCC(=O)O)NC(=O)C(C)(C)NC(=O)[C@@H](N)Cc1c[nH]cn1)C(=O)N[C@@H](CO)C(=O)N[C@@H](CC(=O)O)C(=O)N[C@@H](Cc1ccc(-c2ccccc2)cc1)C(=O)N[C@@H](Cc1ccc(-c2ccccc2)cc1)C(N)=O` [RXL-3033, His-Aib-Glu-Gly-Aib-α-Me-Phe(2-F)-Thr-Ser-Asp-Bip-Bip-NH2] (H-H[Aib]EG[Aib][αMePhe(2-F)]TSD[Bip][Bip]-NH2), for which the maximal response (Emax) was 120% and the “dpEC50 (contribution of Cα-methylation)” value is recorded as −1.00.

As for `C[C@@H](O)[C@H](NC(=O)CNC(=O)[C@H](CCC(=O)O)NC(=O)C(C)(C)NC(=O)[C@@H](N)Cc1c[nH]cn1)C(=O)N[C@@](C)(Cc1ccccc1F)C(=O)NC(C)(C)C(=O)N[C@@H](CO)C(=O)N[C@@H](CC(=O)O)C(=O)N[C@@H](Cc1ccc(-c2ccccc2)cc1)C(=O)N[C@@H](Cc1ccc(-c2ccccc2)cc1)C(N)=O` [RXL-3034, His-Aib-Glu-Gly-Thr-α-Me-Phe(2-F)-Aib-Ser-Asp-Bip-Bip-NH2] (H-H[Aib]EGT[αMePhe(2-F)][Aib]SD[Bip][Bip]-NH2), the “decreased potency by Aib substitution” value is on record as at least 100 fold, the Emax is 106%, the “dpEC50 (contribution of Cα-methylation)” value is reported as −1.60 and the “decreased potency of Aib analog versus Ala analog” value is “about 10 fold”. In addition, the pEC50 (Table 4, Aib-scan peptides) worked out at 7.04.

As for `C[C@@H](O)[C@H](NC(=O)CNC(=O)[C@H](CCC(=O)O)NC(=O)C(C)(C)NC(=O)[C@@H](N)Cc1c[nH]cn1)C(=O)N[C@@](C)(Cc1ccccc1F)C(=O)N[C@H](C(=O)NC(C)(C)C(=O)N[C@@H](CC(=O)O)C(=O)N[C@@H](Cc1ccc(-c2ccccc2)cc1)C(=O)N[C@@H](Cc1ccc(-c2ccccc2)cc1)C(N)=O)[C@@H](C)O` [RXL-3035, His-Aib-Glu-Gly-Thr-α-Me-Phe(2-F)-Thr-Aib-Asp-Bip-Bip-NH2] (H-H[Aib]EGT[αMePhe(2-F)]T[Aib]D[Bip][Bip]-NH2), the “decreased potency by Aib substitution” value was at least 100 fold, the Emax is 79.1% and the “dpEC50 (contribution of Cα-methylation)” value is given as −2.80.

`C[C@@H](O)[C@H](NC(=O)CNC(=O)[C@H](CCC(=O)O)NC(=O)C(C)(C)NC(=O)[C@@H](N)Cc1c[nH]cn1)C(=O)N[C@@](C)(Cc1ccccc1F)C(=O)N[C@H](C(=O)N[C@@H](CO)C(=O)NC(C)(C)C(=O)N[C@@H](Cc1ccc(-c2ccccc2)cc1)C(=O)N[C@@H](Cc1ccc(-c2ccccc2)cc1)C(N)=O)[C@@H](C)O` [RXL-3036, His-Aib-Glu-Gly-Thr-α-Me-Phe(2-F)-Thr-Ser-Aib-Bip-Bip-NH2] (H-H[Aib]EGT[αMePhe(2-F)]TS[Aib][Bip][Bip]-NH2): the “decreased potency by Aib substitution” value is reported as at least 100 fold, the Emax was found to be 96.7%, the “dpEC50 (contribution of Cα-methylation)” value is −2.26 and the “decreased potency of Aib analog versus Ala analog” value is “about fivefold”. The compound further displayed a pEC50 (Table 4, Aib-scan peptides) of 7.04.

Consider `C[C@H](NC(=O)[C@H](CCC(=O)O)NC(=O)C(C)(C)NC(=O)[C@@H](N)Cc1c[nH]cn1)C(=O)N[C@H](C(=O)N[C@@H](Cc1ccccc1F)C(=O)N[C@H](C(=O)N[C@@H](CO)C(=O)N[C@@H](CC(=O)O)C(=O)N[C@@H](Cc1ccc(-c2ccccc2)cc1)C(=O)N[C@@H](Cc1ccc(-c2ccccc2)cc1)C(N)=O)[C@@H](C)O)[C@@H](C)O` [RXL-3037, His-Aib-Glu-Ala-Thr-Phe(2-F)-Thr-Ser-Asp-Bip-Bip-NH2] (H-H[Aib]EAT[Phe(2-F)]TSD[Bip][Bip]-NH2), for which the Emax came to 73.8% and the “decreased potency (Aib/Ala comparison)” value turned out to be 2000 fold. In addition, under setting [1], the EC50 turned out to be 210 nM. The pEC50 (Table 4, Ala-scan peptides) came out at 6.46.

As for `C[C@H](NC(=O)[C@@H](NC(=O)CNC(=O)[C@H](CCC(=O)O)NC(=O)C(C)(C)NC(=O)[C@@H](N)Cc1c[nH]cn1)[C@@H](C)O)C(=O)N[C@H](C(=O)N[C@@H](CO)C(=O)N[C@@H](CC(=O)O)C(=O)N[C@@H](Cc1ccc(-c2ccccc2)cc1)C(=O)N[C@@H](Cc1ccc(-c2ccccc2)cc1)C(N)=O)[C@@H](C)O` [RXL-3038, His-Aib-Glu-Gly-Thr-Ala-Thr-Ser-Asp-Bip-Bip-NH2] (H-H[Aib]EGTATSD[Bip][Bip]-NH2), the Emax was 37.4% and the “decreased potency (Aib/Ala comparison)” value is above 1000 fold. The EC50 under setting [1] was above 1000 nM. Further, the pEC50 (Table 4, Ala-scan peptides) is recorded as 5.55.

Regarding `C[C@@H](O)[C@H](NC(=O)CNC(=O)[C@H](CCC(=O)O)NC(=O)C(C)(C)NC(=O)[C@@H](N)Cc1c[nH]cn1)C(=O)N[C@@](C)(Cc1ccccc1F)C(=O)N[C@H](C(=O)N[C@@H](CO)C(=O)N[C@@H](CC(=O)O)C(=O)NC(C)(C)C(=O)N[C@@H](Cc1ccc(-c2ccccc2)cc1)C(N)=O)[C@@H](C)O` [RXL-3051, His-Aib-Glu-Gly-Thr-α-Me-Phe(2-F)-Thr-Ser-Asp-Aib-Bip-NH2] (H-H[Aib]EGT[αMePhe(2-F)]TSD[Aib][Bip]-NH2), the “decreased potency by Aib substitution” value is given as at least 100 fold, the Emax came to 26.8%, the “dpEC50 (contribution of Cα-methylation)” value is recorded as −1.34 and the “decreased potency (Aib/Ala comparison)” value is reported as > 10,000 fold.
